Measurements from patent US9006250B2, “4-amino-6-(heterocyclic)picolinates and 6-amino-2-(heterocyclic)pyrimidine-4-carboxylates and their use as herbicides” (Dow AgroSciences, LLC, priority 2013, dated 2015).

Assays:
Experiment in all cases: Post-Emergent Test I herbicidal activity
Type in all cases: in vivo
Conditions in all cases: 4 Kg ai/ha
[1] = tested on: AVEFA: wild oats (Avena fatua)
Protocol: (§1) Post-Emergent Test I: Seeds test species were obtained from commercial suppliers and planted into a 5″-round pot containing soil-less media mix (Metro-Mix 360®, Sun Gro Horticulture). Postemergence treatments were planted 8-12 days (d) prior to application and cultured in a greenhouse equipped with supplemental light sources to provide a 16 hour (h) photoperiod at 24-29° C. All pots were surface irrigated. Approximately 10 milligrams (mg) of each compound were dissolved in 1.3 mL acetone-DMSO (97:3, v/v) and diluted with 4.1 mL water-isopropanol-crop oil concentrate (78:20:2, v/v/v) containing 0.02% Triton X-155. Treatments were serial diluted with the above formulation solvent to provide 1.85, 0.926, 0.462 and 0.231 mg/mL of test compound delivered in 2.7 mL/pot (roughly equivalent to 4.0, 2.0, 1.0, and 0.5 kg/ha, respectively). Formulated compounds were applied using a DeVilbiss® compressed air sprayer at 2-4 pounds per square inch (psi). Following treatment, pots were returned to the greenhouse for the duration of the experiment. All pots were sub-irrigated as need to provide optimum growing conditions. All pots were fertilized one time per week by subirrigating with Peters Peat-Lite Special® fertilizer (20-10-20). Phytotoxicity ratings were obtained 10 days after treatment postemergence applications. All evaluations were made visually on a scale of 0 to 100 where 0 represents no activity and 100 represents complete plant death. Visual assessments of plant injury were made based on growth reduction, discoloration, leaf deformity and necrosis.

[2] = tested on: ECHCG: barnyardgrass (Echinochloa crus-galli)
Protocol: as §1

[3] = tested on: HELAN: sunflower (Helianthus annuus)
Protocol: as §1

[4] = tested on: IPOHE: ivyleaf morningglory (Ipomoea hederecea)
Protocol: as §1

[5] = tested on: SETFA: giant foxtail (Setaria faberi)
Protocol: as §1

COC(=O)c1nc(-c2cc3nonc3cc2F)nc(N)c1OC [Compound 10, Methyl 6-amino-2-(6-fluorobenzo[c][1,2,5]oxadiazol-5-yl)-5-methoxypyrimidine-4-carboxylate]
C (75-84): Visual Growth Reduction (%) 10 Days After Application AVEFA [1] | Visual Growth Reduction (%) 10 Days After Application ECHCG [2] | Visual Growth Reduction (%) 10 Days After Application HELAN [3] | Visual Growth Reduction (%) 10 Days After Application IPOHE [4] | Visual Growth Reduction (%) 10 Days After Application SETFA [5]
